In patent publication US7009052B2, “Sulfonamide derivatives” (Warner Lambert Company LLC, priority 2003, dated 2006):

Target: T1, androgen receptor (Homo sapiens, UniProt P10275)
T1 sequence (P10275 1-920 Q868H): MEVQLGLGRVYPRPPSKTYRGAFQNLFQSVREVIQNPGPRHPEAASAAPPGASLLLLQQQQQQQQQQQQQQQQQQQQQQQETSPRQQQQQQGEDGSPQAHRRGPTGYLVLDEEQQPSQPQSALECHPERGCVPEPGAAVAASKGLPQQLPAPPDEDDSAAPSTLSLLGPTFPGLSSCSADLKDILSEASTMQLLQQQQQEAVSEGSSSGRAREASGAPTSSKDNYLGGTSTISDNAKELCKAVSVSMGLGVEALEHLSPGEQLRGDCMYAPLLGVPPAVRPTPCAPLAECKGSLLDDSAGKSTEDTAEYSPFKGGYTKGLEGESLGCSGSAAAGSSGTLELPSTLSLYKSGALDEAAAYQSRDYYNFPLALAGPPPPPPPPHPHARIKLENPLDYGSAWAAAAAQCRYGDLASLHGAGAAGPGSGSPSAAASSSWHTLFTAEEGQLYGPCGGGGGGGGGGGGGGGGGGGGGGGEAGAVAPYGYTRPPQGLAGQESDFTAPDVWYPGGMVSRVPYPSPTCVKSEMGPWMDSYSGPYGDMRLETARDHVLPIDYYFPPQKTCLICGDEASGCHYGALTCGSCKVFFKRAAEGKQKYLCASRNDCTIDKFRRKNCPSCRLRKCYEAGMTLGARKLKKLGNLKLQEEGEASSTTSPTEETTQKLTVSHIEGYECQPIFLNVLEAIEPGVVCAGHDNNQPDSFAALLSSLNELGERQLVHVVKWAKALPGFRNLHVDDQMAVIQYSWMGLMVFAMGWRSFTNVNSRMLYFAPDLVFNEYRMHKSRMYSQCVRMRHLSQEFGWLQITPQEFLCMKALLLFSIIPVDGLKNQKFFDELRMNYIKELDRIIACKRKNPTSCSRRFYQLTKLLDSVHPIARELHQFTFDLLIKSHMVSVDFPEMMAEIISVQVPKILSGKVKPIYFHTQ
Assay: AR Antagonist Cell Assay (MMTV-luciferase reporter, DHT-induced)
Assay type: cell-based
Settings: MDA-MB453-MMTV clone 54-19 cells, 100 pM DHT, 17 hr
How it was run: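 Stably transfected MDA-MB453 cells carrying an ARE-containing MMTV promoter–firefly luciferase reporter, pretreated 30 min with compound at 10 uM or 1 uM in 1% charcoal-treated serum medium. Then stimulated with 100 pM DHT for 17 hr at 37° C. and luminescence read; expressed as % inhibition of DHT-induced signal.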

Q: `O=c1cc(C(F)(F)F)c2cc(S(=O)(=O)NCc3cc(C(F)(F)F)ccc3F)ccc2[nH]1` [Example 158, 2-Oxo-4-trifluoromethyl-1,2-dihydroquinoline-6-sulfonic acid2-fluoro-5-trifluoromethylbenzylamide] was tested. Which IC50 did it give?
A: The IC50 was 6.61 µM.

Q: `O=c1cc(C(F)(F)F)c2cc(S(=O)(=O)NCC(c3ccccc3)c3ccccc3)ccc2[nH]1` [Example 159, 2-Oxo-4-trifluoromethyl-1,2-dihydroquinoline-6-sulfonic acid(2,2-diphenylethyl)amide] was tested. Which IC50 did it give?
A: Its IC50 is 1.56 µM.

Q: With `O=c1cc(C(F)(F)F)c2cc(S(=O)(=O)N[C@H]3CCCC[C@H]3OCc3ccccc3)ccc2[nH]1` [Example 160, 2-Oxo-4-trifluoromethyl-1,2-dihydroquinoline-6-sulfonic acid(2-benzyloxycyclohexyl)amide] as the compound, how does the IC50 read?
A: The IC50 was over 10 µM.
